Results: ChEMBL document CHEMBL4038320 (J Med Chem, 2017)
pIC50: −log10 of the molar value.

Experiments:
[1] = biological target: Rho-associated protein kinase 2 (Homo sapiens, UniProt O75116); assay: Inhibition of recombinant human N-terminal GST-tagged ROCK2 catalytic domain (1 to 553 residues) expressed in baculovirus expression system using STK 2-biotin as substrate measured after 60 mins by HTRF/TR-FRET assay
[2] = biological target: Protein kinase C alpha type (Homo sapiens, UniProt P17252); assay: Inhibition of human PKCalpha active using MBP as substrate after 60 mins in presence of [gamma-32]ATP by scintillation counting
CYP3A4 = CYP3A4 (Homo sapiens, UniProt P08684); assay: Inhibition of CYP3A4 (unknown origin) at 10 uM; format: ADME
Sequence of CYP3A4 (P08684 whole entry): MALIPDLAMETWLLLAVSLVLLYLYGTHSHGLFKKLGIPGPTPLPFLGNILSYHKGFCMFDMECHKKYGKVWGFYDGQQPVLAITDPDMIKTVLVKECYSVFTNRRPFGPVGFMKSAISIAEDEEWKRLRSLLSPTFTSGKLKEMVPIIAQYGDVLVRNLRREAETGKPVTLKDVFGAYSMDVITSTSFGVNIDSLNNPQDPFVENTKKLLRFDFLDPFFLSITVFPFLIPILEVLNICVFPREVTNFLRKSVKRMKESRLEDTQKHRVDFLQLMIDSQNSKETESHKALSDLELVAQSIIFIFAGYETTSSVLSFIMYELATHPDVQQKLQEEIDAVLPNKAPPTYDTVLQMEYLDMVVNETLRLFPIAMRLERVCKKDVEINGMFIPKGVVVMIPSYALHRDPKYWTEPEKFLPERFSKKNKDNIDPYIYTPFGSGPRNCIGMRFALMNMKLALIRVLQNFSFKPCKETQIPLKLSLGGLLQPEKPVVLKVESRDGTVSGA

Sequence of Rho-associated protein kinase 2 (O75116 whole entry, the tested form may be a part): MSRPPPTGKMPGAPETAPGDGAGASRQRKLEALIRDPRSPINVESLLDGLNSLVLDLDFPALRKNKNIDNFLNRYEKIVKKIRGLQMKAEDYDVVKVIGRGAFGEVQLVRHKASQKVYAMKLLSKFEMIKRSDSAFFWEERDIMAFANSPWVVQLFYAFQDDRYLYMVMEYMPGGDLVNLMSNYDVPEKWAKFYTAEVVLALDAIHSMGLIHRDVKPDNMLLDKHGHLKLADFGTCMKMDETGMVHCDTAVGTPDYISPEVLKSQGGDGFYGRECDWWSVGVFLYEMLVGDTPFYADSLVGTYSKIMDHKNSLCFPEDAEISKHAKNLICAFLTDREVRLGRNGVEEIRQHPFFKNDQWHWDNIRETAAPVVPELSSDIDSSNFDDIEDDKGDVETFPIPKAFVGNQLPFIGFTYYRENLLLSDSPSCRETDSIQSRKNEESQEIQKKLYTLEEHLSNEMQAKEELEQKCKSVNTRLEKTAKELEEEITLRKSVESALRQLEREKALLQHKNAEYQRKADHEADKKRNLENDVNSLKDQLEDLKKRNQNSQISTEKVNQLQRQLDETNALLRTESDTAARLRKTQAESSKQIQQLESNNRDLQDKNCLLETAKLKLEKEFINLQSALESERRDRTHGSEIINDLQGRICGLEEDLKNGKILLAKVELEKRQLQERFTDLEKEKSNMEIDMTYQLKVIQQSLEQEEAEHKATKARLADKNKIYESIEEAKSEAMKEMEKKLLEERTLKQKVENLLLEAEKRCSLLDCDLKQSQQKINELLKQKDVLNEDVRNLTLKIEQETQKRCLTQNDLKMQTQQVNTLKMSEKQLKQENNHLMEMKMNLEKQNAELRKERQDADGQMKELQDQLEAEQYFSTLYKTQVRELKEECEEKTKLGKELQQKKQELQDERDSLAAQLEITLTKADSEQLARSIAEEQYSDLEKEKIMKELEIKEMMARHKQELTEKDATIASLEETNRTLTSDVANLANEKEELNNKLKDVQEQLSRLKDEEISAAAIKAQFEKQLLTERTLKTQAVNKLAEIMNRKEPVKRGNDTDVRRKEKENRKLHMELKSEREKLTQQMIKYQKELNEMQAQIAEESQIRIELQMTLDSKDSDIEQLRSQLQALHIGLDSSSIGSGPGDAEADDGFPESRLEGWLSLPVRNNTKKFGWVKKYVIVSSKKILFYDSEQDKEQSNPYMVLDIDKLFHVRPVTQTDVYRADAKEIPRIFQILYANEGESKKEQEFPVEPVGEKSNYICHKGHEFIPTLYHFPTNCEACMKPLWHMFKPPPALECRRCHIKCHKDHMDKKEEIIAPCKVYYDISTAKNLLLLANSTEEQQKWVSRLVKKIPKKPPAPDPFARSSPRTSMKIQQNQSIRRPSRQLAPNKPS

| Structure (SMILES) | pIC50 [1] | pIC50 [2] | inhibition at 10 µM (CYP3A4) |
| --- | --- | --- | --- |
| O=C(NCc1ccccc1)c1cccc(NCc2csc(-c3ccncc3)n2)c1 | 6.92 | < 5.00 | 87% |
| Cn1c(CNc2cccc(C(=O)NCc3ccccc3Cl)c2)nnc1-c1ccncc1 | 5.80 | 5.06 | 54% |
| CC(C)n1c(CNc2cccc(C(=O)NCc3ccccc3)c2)nnc1-c1ccncc1 | 6.59 | 5.32 | 50% |
| COCCn1c(CNc2cccc(C(=O)NCc3ccccc3)c2)nnc1-c1ccncc1 | 6.49 | 5.13 | 57% |
| O=C(CNc1ccccc1)N/N=C1\CCCc2cnccc21 | 5.74 |  |  |
| Cn1c(CNc2cccc(C(=O)NCc3ccccc3C(F)(F)F)c2)nnc1-c1ccncn1 | 6.14 | < 5.00 | 63% |
| O=C(CNc1ccc(Cl)cc1)N/N=C/c1ccncc1 | 6.27 |  |  |
| O=C(NCc1ccccc1)c1cccc(NCc2cc(-c3ccncc3)n[nH]2)c1 | 7.22 | 5.14 | 99% |
| O=C(NCc1ccccc1)c1cccc(NCc2nc(-c3ccncc3)no2)c1 | 6.46 | < 5.00 | 86% |
| O=C(CNc1cccc(C(=O)N2CCOCC2)c1)N/N=C1\CCCc2cnccc21 | < 5.00 |  |  |
| Cn1c(CNc2cccc(C(=O)NCc3c(F)cccc3F)c2)nnc1-c1ccnc(NCCCc2ccccc2)c1 | < 5.00 | 5.60 | 64% |
| O=C(CNc1ccccc1Cl)N/N=C/c1ccncc1 | 5.59 |  |  |
| O=S(=O)(NCc1ccccc1)c1cccc(NCc2nc(-c3ccncc3)n[nH]2)c1 | 7.01 |  | 83% |
| O=C(NCc1ccccc1)c1cccc(NCc2ccn(-c3ccncc3)c2)c1 | 6.47 |  | 95% |
| O=C(NCCc1ccccc1)c1cccc(NCc2nc(-c3ccncc3)n[nH]2)c1 | 7.33 | < 5.00 | 95% |
| O=C(NCc1ccccc1)Nc1cccc(NCc2nc(-c3ccncc3)n[nH]2)c1 | 7.52 | 5.57 | 92% |
| O=C(NCc1ccccc1)c1cccc(NCc2c[nH]c(-c3ccncc3)n2)c1 | 6.80 |  | 93% |
| Cn1c(CNc2cccc(C(=O)NCc3c(F)cccc3F)c2)nnc1-c1ccnc(NCCc2ccccc2)c1 | < 5.00 |  | 69% |
| c1ccc(CNCc2nc(-c3ccncc3)n[nH]2)cc1 | 5.29 |  | 74% |
| O=C(CNc1ccccc1)N/N=C/c1ccncc1 | 6.19 |  |  |
| Cc1cnccc1-c1n[nH]c(CNc2cccc(C(=O)NCc3ccccc3)c2)n1 | 7.03 | < 5.00 | 88% |

| Structure (SMILES) | pIC50 [1] | pIC50 [2] | inhibition at 10 µM (CYP3A4) |
| --- | --- | --- | --- |
| O=C(Nc1nc(-c2ccncc2)n[nH]1)c1ccc(Cl)cc1 | < 5.00 |  | 27% |
| O=C(NCc1ccccc1)c1cccc(NCc2cc(-c3ccncc3)no2)c1 | 6.89 | 5.08 | 92% |
| COc1ccc(CNC(=O)c2cccc(NCc3nnc(-c4ccncc4)[nH]3)c2)cc1 | 7.57 | 5.15 | 91% |
| O=C(NCc1ccccc1)c1cccc(NCc2cc(-c3ccncc3)on2)c1 | 7.74 | 5.60 | 84% |
| O=C(CNc1cccc(Cl)c1)N/N=C/c1ccncc1 | 6.52 |  |  |
| O=C(Nc1ccccc1)c1cccc(NCc2nc(-c3ccncc3)n[nH]2)c1 | 7.51 | 6.17 | 94% |
| Clc1ccc(CSc2nc(-c3ccncc3)n[nH]2)cc1 | 5.72 |  | 97% |
| NS(=O)(=O)c1ccc(NCc2nc(-c3ccncc3)n[nH]2)cc1 | 6.44 | < 5.00 | 20% |
| O=C(CNc1cccc(OCc2ccccc2)c1)N/N=C1\CCCc2cnccc21 | < 5.00 | < 5.00 |  |
| O=C(Cc1cccc(NCc2nc(-c3ccncc3)n[nH]2)c1)NCc1ccccc1 | 6.32 | < 5.00 | 92% |
| c1ccc(Oc2cccc(NCc3nc(-c4ccncc4)n[nH]3)c2)cc1 | < 5.00 | < 5.00 | 100% |
| CN(Cc1ccccc1)C(=O)c1cccc(NCc2nc(-c3ccncc3)n[nH]2)c1 | 5.66 | < 5.00 | 79% |
| O=C(CNc1cccc(C(=O)NCc2ccccc2)c1)N/N=C1\CCCc2cnccc21 | 7.24 | < 5.00 |  |
| O=C(NCc1ccccc1)c1cccc(NCc2nc(-c3ccncc3)cs2)c1 | 7.66 | < 5.00 | 92% |
| CCCn1c(CNc2cccc(C(=O)NCc3ccccc3C(F)(F)F)c2)nnc1-c1ccncn1 | 6.85 | 5.92 | 81% |
| Cc1cc(-c2n[nH]c(CNc3ccc(Cl)cc3)n2)ccn1 | 5.15 | < 5.00 | 47% |
| c1ccc(COc2cccc(NCc3nc(-c4ccncc4)n[nH]3)c2)cc1 | 5.85 | < 5.00 | 97% |
| O=C(NCc1ccccc1)c1cccc(NCc2nc(-c3ccncc3)c[nH]2)c1 | 8.14 | 5.44 | 100% |
| COc1ccc(NCC(=O)N/N=C/c2ccncc2)cc1 | 5.43 |  |  |
| O=C(NCc1ccccc1)c1cccc(NCc2nc(-c3ccncc3CO)n[nH]2)c1 | 6.27 | < 5.00 | 100% |
| COc1cccc(NCC(=O)N/N=C/c2ccncc2)c1 | 7.21 |  |  |

| Structure (SMILES) | pIC50 [1] | pIC50 [2] | inhibition at 10 µM (CYP3A4) |
| --- | --- | --- | --- |
| CC(=O)Nc1cc(NCc2nc(-c3ccncc3)n[nH]2)ccc1Cl | 7.13 | 5.08 | 80% |
| Clc1ccccc1NCc1nc(-c2ccncc2)n[nH]1 | 5.77 | < 5.00 | 100% |
| COc1ccccc1CNC(=O)c1cccc(NCc2nnc(-c3ccncc3)[nH]2)c1 | 7.07 | 5.48 | 95% |
| Clc1ccc(SCc2nc(-c3ccncc3)n[nH]2)cc1 | 6.23 |  | 100% |
| CC(=O)Nc1cc(-c2nnc(CNc3cccc(C(=O)NCc4ccccc4C(F)(F)F)c3)n2C)ccn1 | < 5.00 |  | 56% |
| OCCc1cnccc1-c1n[nH]c(CNc2ccc(Cl)cc2)n1 | < 5.00 |  | 100% |
| O=C(NCc1ccccc1)c1cccc(NCc2nnc(-c3ccncc3)n2Cc2ccccc2)c1 | 5.49 |  | 87% |
| O=S(=O)(Cc1ccccc1)c1cccc(NCc2nc(-c3ccncc3)n[nH]2)c1 | 5.96 |  | 86% |
| Clc1cccc(OCc2n[nH]c(-c3ccncc3)n2)c1 | 5.77 |  | 86% |
| Clc1ccc(CNc2nc(-c3ccncc3)n[nH]2)cc1 | 6.57 |  | 96% |
| COc1ccccc1NCC(=O)N/N=C/c1ccncc1 | 5.13 |  |  |
| Clc1ccc(NCCc2nc(-c3ccncc3)n[nH]2)cc1 | 6.05 |  | 93% |
| O=C(CNc1cccc(Oc2ccccc2)c1)N/N=C1\CCCc2cnccc21 | 5.21 | < 5.00 |  |
| COc1cccc(NCC(=O)N/N=C2\CCCc3cnccc32)c1 | 6.41 | < 5.00 |  |
| O=C(NCc1c(F)cccc1F)c1cccc(NCc2nnc3n2CCOc2cnccc2-3)c1 | 6.72 |  | 49% |
| CC(=O)Nc1cccc(NCc2nc(-c3ccncc3)n[nH]2)c1 | 7.15 |  | 77% |
| O=C(NCc1ccccc1)c1cccc(NCc2[nH]nc(-c3ccncc3)c2-c2ccccc2)c1 | 6.77 |  | 87% |
| NC(=O)OCc1cnccc1-c1n[nH]c(CNc2cccc(C(=O)NCc3ccccc3)c2)n1 | 5.64 |  | 63% |
| CNc1cc(-c2nnc(CNc3cccc(C(=O)NCc4c(F)cccc4F)c3)n2C)ccn1 | 5.13 |  | 29% |
| CCOc1cccc(NCC(=O)N/N=C2\CCCc3cnccc32)c1 | 5.24 | < 5.00 |  |
